Source: US20240424071A1, “NOVEL MUTANT OF RECOMBINANT GANODERMA LUCIDUM IMMUNOMODULATORY PROTEIN AND USE THEREOF” (CHANGCHUN INTELLICROWN PHARMACEUTICAL CO., LTD., priority 2021, published 2024)

Key:
[1] = tested on: LI6669 human liver cancer orthotopic transplantation tumor; assay: LI6669 human liver cancer orthotopic transplantation tumor model (PDX), survival; format: in vivo, BALB/c nude mouse; conditions: Group 2, 50 mg/kg QD p.o. for 28 days; solvent control […] days
Source text: LI6669 is a HuPrime® orthotopic transplantation model originated from a patient's liver cancer.
Tumor tissue was collected from a LI6669 tumor-bearing mouse, a HuPrime® orthotopic transplantation model of liver, and cut to tumor pieces with a diameter of 2-3 mm, which were inoculated into the upper left lobe of liver of a Balb/c nude mouse.
When the average tumor volume of the tumor-bearing mice reached about 50-150 mm^3, the mice were randomly grouped by weight according to Table 3 of “3. Design of Experiment”. The grouping day was set as Day 0, and the administration began on Day 1. […].
After tumor cell inoculation, route monitoring comprises the tumor growth and the effect of treatment on normal behaviors of animals, specially including the activity, food intake and water consumption, weight gain or loss, eyes, fur of experimental animals, and other abnormal conditions. The clinical symptoms observed during the experiments were all recorded in the original data. After drug administration, the mice were measured twice a week for their weights. Observation was made to record the mouse requiring euthanasia and the corresponding survival time.

[2] = tested on: human non-small cell lung cancer cell line A549; assay: Killing effect on tumor cells, CellTiter-Fluor Cell Viability Assay; format: cell-based; conditions: 48 h, 2% fetal bovine serum medium
Method: CellTiter™-Flour Cell Viability Assay Reagent kit was used to detect the killing effects of the EAEA+rLZ-8 mutant (SEQ ID NO: 14) and the […]+rLZ-8 mutant (SEQ ID NO: 15) on tumor cells (human non-small cell lung cancer cell line A549) in vitro. The recombinant protein was diluted with 2% fetal bovine serum culture medium to produce test solutions with concentrations of 100 μg/mL, 50 μg/mL, 25 μg/mL, 12.5 μg/mL, 6.25 μg/mL, 3.125 μg/mL, 1.5625 μg/mL, 0.78125 μg/mL, 0.390625 μg/mL, 0.1953125 μg/mL, and 0.09765625 μg/mL, total 11 concentrations.
The dilutions were added into a 96-well plate containing A549 cells with 100 μL/well. For each group of concentration, 3 parallel wells were set and marked. A cell control group (i.e., cells only) was set at 100 μL/well, with 6 parallel wells. The plates were cultured in a CO2 incubator at 5% CO2 and 37° C. for 48 h.
100 μL of prepared CellTiter™-Flour Cell Viability Assay Reagent (1 mLL Assay Buffer; 1 μl GF-AFC Substrate) was added into each well. The plates were shaken for mixing well, and incubated in a CO2 incubator at 5% CO2 and 37° C. for not less than 30 min. The fluorescence value was detected with a microplate reader at a wavelength of 400EX/505EM, and the IC50value was calculated.

CNC(=O)c1cc(Oc2ccc(NC(=O)Nc3ccc(Cl)c(C(F)(F)F)c3)cc2)ccn1 [Sorafenib, reference compound]
Median Survival [1]: >28 days

B1: EEAEAEAEPK+rLZ-8 mutant: recombinant protein: spacer peptide EEAEAEAEPK (SEQ ID NO: 9) linked to rLZ-8 mutant (SEQ ID NO: 13) (protein)
chain: EEAEAEAEPKMSDTALIFRLAWDVKKLSFDYTPNWGRGNPNNFIDTVTFPKVLTDKAYTYRVAVSGRNLGVKPSYAVESKGSQKVNFLEYNSGYGIADTNTIQVFVVDPDTNNDFIIAQWN
modifications: EEAEAEAEPK-rLZ-8 mutant (D70K)
IC50, killing effect on lung cancer cell line A549 [2]: 1.91 µg/mL
